According to paper PMC10962542, “Inhibition of Aurora‐A/N‐Myc Protein–Protein Interaction Using Peptidomimetics: Understanding the Role of Peptide Cyclization” (Chembiochem, 2023):
*1 amine or outer side, *2 acyl side, *3 side chain or, on linkers, in order; H or OH if unused. Where a SMILES comes first, the peptide text is derived from it. Bridges are numbered along the chain shown (N, C = ends). Maleimide(3,4-diyl) = O=C1NC(=O)C([*:2])=C1[*:1]

How the values were obtained:
[1] = molecular target: T1, N‐Myc/Aurora‐A interaction (Aurora‐A122‐403‐C290A/C393A) (Homo sapiens, UniProt O14965, C290A/C393A); assay: competition fluorescence anisotropy (FA) assay against fluorescein labelled N‐Myc61‐89; format: binding; details: SD; further: equilibrated 2 h at room temperature
T1 construct: Aurora‐A 122‐403‐C290A/C393A protein was produced as described previously; made in house
T1 sequence (O14965 122-403 C290A/C393A): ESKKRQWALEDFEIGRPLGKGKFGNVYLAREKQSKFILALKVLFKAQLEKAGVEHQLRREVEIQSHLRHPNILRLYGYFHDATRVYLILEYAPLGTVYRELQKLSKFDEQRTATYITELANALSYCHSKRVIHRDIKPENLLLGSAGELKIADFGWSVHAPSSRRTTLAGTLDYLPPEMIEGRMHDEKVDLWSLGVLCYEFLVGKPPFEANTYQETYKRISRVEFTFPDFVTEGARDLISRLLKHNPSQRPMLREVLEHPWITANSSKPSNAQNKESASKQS
Experimental: Fluorescence anisotropy (FA) assays: All assays were performed using 384‐well plates (Greiner Bio‐one, UK). […] All samples were prepared in 25 mM Tris, 150 mM NaCl, 5 mM MgCl2, pH 7.5, and tested in triplicate using an EnVisionTM 2103 MultiLabel plate reader (Perkin Elmer; Waltham, MA, USA). The parameters were set as follows: Excitation wavelength=480 nm (30 nm bandwidth) and emission wavelength=535 nm (30 nm bandwidth). Measured data were processed and analysed as previously described.[31] Specifically, the perpendicular intensity (P) and parallel intensity (S) were subtracted by the control values and used for calculations of intensity and anisotropy using the following Equations 1, 2, 3, 4, and 5: (1) I=2PG+S (2) r=S-PG (3) Lb=r-rmin/λrmax-r+r-rmin (4) [drawing 1] (5) y=rmax+rmin-rmax/1+(x/x0)^p
For competition FA assays, the average anisotropy and the average standard deviation of the values derived from equation (2) were calculated and fit to a sigmoidal logistic model (equation (5)) using Origin 2021. […] Results are reported as IC50±SD, with data points representing the mean of three replicates and error bars indicating the corresponding SD. Where applicable, ΔΔG was determined as follows: ΔΔG=−RT ln (ΔIC50).

[2] = circular dichroism (CD) spectroscopy; format: physicochemical; details: 150 mM NaCl, 5 mM MgCl2, pH 7.5, 5 °C, n=2, free‐thiol (red) samples with 5 mol equivalents TCEP; for MRE222 (mean residue ellipticity at 222 nm): 25 mM Tris, mean ± SD, SD; for % Helicity (estimated): from MRE222 by equation 7, 25 mM Tris
Experimental: Circular dichroism (CD): All samples were prepared in Tris buffer (25 mM Tris, 150 mM NaCl, 5 mM MgCl2, pH 7.5) with the exception of free sulfhydryl peptides, to which Tris(2‐carboxyethyl)phosphine (TCEP; 5 mol eq. relative to the peptide) was added. CD spectra were recorded using an APP Chirascan CD spectropolarimeter and 1 mm pathlength quartz cuvettes. Sample concentrations were typically 30–120 μM, as determined by UV−V absorption based on a tryptophan extinction coefficient of 5600 M^−1 cm^−1 and, for mal‐constrained variants, a maleimide coefficient of 1700 M^−1 cm^−1.[16, 32] […] Spectra were recorded in duplicate at 5 °C, over wavelengths ranging from 290 to 180 nm, with data collected every 1 nm (1 nm s^−1). A background spectrum for CD buffer alone was also recorded and background ellipticity values were subtracted from raw sample ellipticity values (θ) when calculating mean residue ellipticities (MREs) using Equation 6: (6) MRE=(θλ-θ0)xMw/nxlxc
Where [θ]λ is the observed ellipticity at a given wavelength λ in mdeg, [θ]0 is the ellipticity observed for the buffer, Mw =molar weight of the peptide in g mol^−1, n=number of residues; c=sample concentration (mg mL^−1); l=pathlength of the cuvette in mm. Estimates of peptide % helicity were made using Equation 7, [33] (7) %helicity=(MRE222-MREcoil)x100/-425001-3/n
where MRE222 is the MRE value at 222 nm, MREcoil=640‐45T (with T in °C)=415 deg cm^2 dmol^−1 res^−1 at 5 °C, and n is the number of backbone amide bonds including the N‐terminal acetyl.

Row | Structure (SMILES) | IC50 [1] [µM] | MRE222 (mean residue ellipticity at 222 nm) [2] [deg cm^−1 dmol^−1 res^−1] | % Helicity (estimated) [2] [%]
1 | CSCC[C@@H]1NC(=O)[C@@H](NC(=O)[C@@H](NC(=O)[C@@H](NC(=O)[C@H](Cc2c[nH]c3ccccc23)NC(=O)[C@H](CO)NC(=O)[C@@H]2CCCN2C(=O)[C@@H]2CCCN2C(=O)[C@H](CCC(=O)O)NC(=O)[C@H](CO)NC(=O)[C@H](CO)NC(=O)[C@H](Cc2c[nH]cn2)NC(=O)[C@H](CCC(=O)O)NC(=O)[C@H](C)NC(=O)[C@H](Cc2ccccc2)NC(=O)CNC(=O)[C@H](CCCNC(=N)N)NC(=O)[C@H](CO)NC(=O)[C@@H]2CCCN2C(=O)[C@H](CO)NC(=O)[C@H](CC(C)C)NC(C)=O)C(C)C)[C@@H](C)O)CSSC[C@@H](C(=O)N[C@@H](CC(N)=O)C(=O)N[C@@H](CCC(=O)O)C(=O)N[C@@H](CC(C)C)C(=O)N[C@@H](Cc2c[nH]c3ccccc23)C(=O)NCC(N)=O)NC(=O)[C@H](CC(C)C)NC(=O)[C@H](CC(C)C)NC1=O [N-Myc 61-89 E80C/E84C ox] (Ac-LSPSRGFAEHSSEPPSWVTCMLLCNELWG-NH2; disulfide 20-24) | 107 ± 19 | -2656 ± 28 | 8 ± 1
2 | CSCC[C@H](NC(=O)[C@H](CCC(=O)O)NC(=O)[C@@H](NC(=O)[C@@H](NC(=O)[C@H](Cc1c[nH]c2ccccc12)NC(=O)[C@H](CO)NC(=O)[C@@H]1CCCN1C(=O)[C@@H]1CCCN1C(=O)[C@H](CCC(=O)O)NC(=O)[C@H](CO)NC(=O)[C@H](CO)NC(=O)[C@H](Cc1c[nH]cn1)NC(=O)[C@H](CCC(=O)O)NC(=O)[C@H](C)NC(=O)[C@H](Cc1ccccc1)NC(=O)CNC(=O)[C@H](CCCNC(=N)N)NC(=O)[C@H](CO)NC(=O)[C@@H]1CCCN1C(=O)[C@H](CO)NC(=O)[C@H](CC(C)C)NC(C)=O)C(C)C)[C@@H](C)O)C(=O)N[C@H]1CSSC[C@@H](C(=O)N[C@@H](CC(C)C)C(=O)N[C@@H](Cc2c[nH]c3ccccc23)C(=O)NCC(N)=O)NC(=O)[C@H](CC(N)=O)NC(=O)[C@H](CCC(=O)O)NC(=O)[C@H](CC(C)C)NC1=O [N-Myc 61-89 L82C/E86C ox] (Ac-LSPSRGFAEHSSEPPSWVTEMCLENCLWG-NH2; disulfide 22-26) | 219 ± 23 | -2630 ± 119 | 8 ± 1
3 | CC(=O)N[C@@H](CC(C)C)C(=O)N[C@@H](CO)C(=O)N1CCC[C@H]1C(=O)N[C@@H](CO)C(=O)N[C@@H](CCCNC(=N)N)C(=O)NCC(=O)N[C@@H](Cc1ccccc1)C(=O)N[C@@H](C)C(=O)N[C@@H](CCC(=O)O)C(=O)N[C@@H](Cc1c[nH]cn1)C(=O)N[C@@H](CO)C(=O)N[C@@H](CO)C(=O)N[C@@H](CCC(=O)O)C(=O)N1CCC[C@H]1C(=O)N1CCC[C@H]1C(=O)N[C@@H](CO)C(=O)N[C@@H](Cc1c[nH]c2ccccc12)C(=O)N[C@H](C(=O)N[C@H](C(=O)N[C@@H](CCC(=O)O)C(=O)N[C@H]1CSSC[C@@H](C(=O)N[C@@H](CCC(=O)O)C(=O)N[C@@H](CC(C)C)C(=O)N[C@@H](Cc2c[nH]c3ccccc23)C(=O)NCC(N)=O)NC(=O)[C@H](CCC(=O)O)NC(=O)[C@H](CC(C)C)NC(=O)[C@H](CC(C)C)NC1=O)[C@@H](C)O)C(C)C [N-Myc 61-89 M81C/N85C ox] (Ac-LSPSRGFAEHSSEPPSWVTECLLECELWG-NH2; disulfide 21-25) | 92 ± 13 | -2894 ± 119 | 9 ± 1
4 | CSCC[C@H](NC(=O)[C@@H]1CSC2=C(SC[C@H](NC(=O)[C@@H]3CCCN3C(=O)[C@@H]3CCCN3C(=O)[C@H](CCC(=O)O)NC(=O)[C@H](CO)NC(=O)[C@H](CO)NC(=O)[C@H](Cc3c[nH]cn3)NC(=O)[C@H](CCC(=O)O)NC(=O)[C@H](C)NC(=O)[C@H](Cc3ccccc3)NC(=O)CNC(=O)[C@H](CCCNC(=N)N)NC(=O)[C@H](CO)NC(=O)[C@@H]3CCCN3C(=O)[C@H](CO)NC(=O)[C@H](CC(C)C)NC(C)=O)C(=O)N[C@@H](Cc3c[nH]c4ccccc34)C(=O)N[C@@H](C(C)C)C(=O)N[C@@H]([C@@H](C)O)C(=O)N1)C(=O)NC2=O)C(=O)N[C@@H](CC(C)C)C(=O)N[C@@H](CC(C)C)C(=O)N[C@@H](CCC(=O)O)C(=O)N[C@@H](CC(N)=O)C(=O)N[C@@H](CCC(=O)O)C(=O)N[C@@H](CC(C)C)C(=O)N[C@@H](Cc1c[nH]c2ccccc12)C(=O)NCC(N)=O [N-Myc 61-89 S76C/E80 mal] (Ac-LSPSRGFAEHSSEPPCWVTCMLLENELWG-NH2; linker 16-20 via Maleimide(3,4-diyl)) | 147 ± 13 |  | 

Results, then the molecule that gave them:

Row | IC50 [1] [µM] | MRE222 (mean residue ellipticity at 222 nm) [2] [deg cm^−1 dmol^−1 res^−1] | % Helicity (estimated) [2] [%] | Structure (SMILES)
5 | 84 ± 9 | -2141 ± 88 | 7 ± 1 | CSCC[C@H](NC(=O)[C@@H]1CSSC[C@H](NC(=O)[C@@H]2CCCN2C(=O)[C@@H]2CCCN2C(=O)[C@H](CCC(=O)O)NC(=O)[C@H](CO)NC(=O)[C@H](CO)NC(=O)[C@H](Cc2c[nH]cn2)NC(=O)[C@H](CCC(=O)O)NC(=O)[C@H](C)NC(=O)[C@H](Cc2ccccc2)NC(=O)CNC(=O)[C@H](CCCNC(=N)N)NC(=O)[C@H](CO)NC(=O)[C@@H]2CCCN2C(=O)[C@H](CO)NC(=O)[C@H](CC(C)C)NC(C)=O)C(=O)N[C@@H](Cc2c[nH]c3ccccc23)C(=O)N[C@@H](C(C)C)C(=O)N[C@@H]([C@@H](C)O)C(=O)N1)C(=O)N[C@@H](CC(C)C)C(=O)N[C@@H](CC(C)C)C(=O)N[C@@H](CCC(=O)O)C(=O)N[C@@H](CC(N)=O)C(=O)N[C@@H](CCC(=O)O)C(=O)N[C@@H](CC(C)C)C(=O)N[C@@H](Cc1c[nH]c2ccccc12)C(=O)NCC(N)=O [N-Myc 61-89 S76C/E80 ox] (Ac-LSPSRGFAEHSSEPPCWVTCMLLENELWG-NH2; disulfide 16-20)
6 | 99 ± 2 |  |  | CSCC[C@@H]1NC(=O)[C@H](CCC(=O)O)NC(=O)[C@@H](NC(=O)[C@@H](NC(=O)[C@H](Cc2c[nH]c3ccccc23)NC(=O)[C@H](CO)NC(=O)[C@@H]2CCCN2C(=O)[C@@H]2CCCN2C(=O)[C@H](CCC(=O)O)NC(=O)[C@H](CO)NC(=O)[C@H](CO)NC(=O)[C@H](Cc2c[nH]cn2)NC(=O)[C@H](CCC(=O)O)NC(=O)[C@H](C)NC(=O)[C@H](Cc2ccccc2)NC(=O)CNC(=O)[C@H](CCCNC(=N)N)NC(=O)[C@H](CO)NC(=O)[C@@H]2CCCN2C(=O)[C@H](CO)NC(=O)[C@H](CC(C)C)NC(C)=O)C(C)C)CSC2=C(SC[C@@H](C(=O)N[C@@H](CCC(=O)O)C(=O)N[C@@H](CC(N)=O)C(=O)N[C@@H](CCC(=O)O)C(=O)N[C@@H](CC(C)C)C(=O)N[C@@H](Cc3c[nH]c4ccccc34)C(=O)NCC(N)=O)NC(=O)[C@H](CC(C)C)NC1=O)C(=O)NC2=O [N-Myc 61-89 T79C/L83C mal] (Ac-LSPSRGFAEHSSEPPSWVCEMLCENELWG-NH2; linker 19-23 via Maleimide(3,4-diyl))
7 | 129 ± 3 |  |  | CSCC[C@H](NC(=O)[C@H](CCC(=O)O)NC(=O)[C@@H](NC(=O)[C@@H](NC(=O)[C@H](Cc1c[nH]c2ccccc12)NC(=O)[C@H](CO)NC(=O)[C@@H]1CCCN1C(=O)[C@@H]1CCCN1C(=O)[C@H](CCC(=O)O)NC(=O)[C@H](CO)NC(=O)[C@H](CO)NC(=O)[C@H](Cc1c[nH]cn1)NC(=O)[C@H](CCC(=O)O)NC(=O)[C@H](C)NC(=O)[C@H](Cc1ccccc1)NC(=O)CNC(=O)[C@H](CCCNC(=N)N)NC(=O)[C@H](CO)NC(=O)[C@@H]1CCCN1C(=O)[C@H](CO)NC(=O)[C@H](CC(C)C)NC(C)=O)C(C)C)[C@@H](C)O)C(=O)N[C@@H](CC(C)C)C(=O)N[C@H]1CSC2=C(SC[C@@H](C(=O)N[C@@H](Cc3c[nH]c4ccccc34)C(=O)NCC(N)=O)NC(=O)[C@H](CCC(=O)O)NC(=O)[C@H](CC(N)=O)NC(=O)[C@H](CCC(=O)O)NC1=O)C(=O)NC2=O [N-Myc 61-89L83C/L87C mal] (Ac-LSPSRGFAEHSSEPPSWVTEMLCENECWG-NH2; linker 23-27 via Maleimide(3,4-diyl))
